Data on two compounds can be found in patent publication US20180015100A1, “COMBINATION PRODUCTS FOR THE TREATMENT OF BACTERIAL INFECTIONS AND METHODS OF PRODUCING OR DOSING OF SAME” (priority 2016, published 2018).

A word on the MIC: it is the least concentration at which growth counts as inhibited. One may read the MIC50 as the lowest concentration that inhibits either 50% of growth or 50% of the strains tested, depending on the study. A higher MIC50 goes with lower susceptibility. One may read the MIC90 as the lowest concentration that inhibits either 90% of growth or 90% of the strains tested, depending on the study. A word on the bioavailability: it is the share of a dose that reaches the circulation, judged against a reference dose that is usually intravenous.

Structures are written as SMILES. Where only a bound is given, the exact number is not on record here.

The test system of data set [1] is ESBL-producing Enterobacteriaceae isolates (panel of nineteen). Briefly: MIC of cephalosporins alone or with clavulanate/tazobactam, whole panel. To be noted: cephalosporin alone; 19 isolates. Format: cell-based.
For data set [2], the system named is Klebsiella pneumoniae isolates. Nature of the data set: MIC of cephalosporins alone or with clavulanate/tazobactam. The data set is classed as cell-based. To be noted: clavulanate 2:1, tazobactam 4 μg/mL.
Data set [3] relates to Enterobacter aerogenes isolates. The data set is described as above. Format: cell-based. The following applies: Klebsiella aerogenes, clavulanate 2:1, tazobactam 4 μg/mL.
In data set [4] the test system is Enterobacter cloacae isolates. Described as above. The data set is classed as cell-based. The following applies: clavulanate 2:1, tazobactam 4 μg/mL.
In data set [5] the test system is 385 Escherichia coli and 126 Klebsiella pneumoniae isolates. Briefly: MIC, MIC50 and MIC90 by reference broth microdilution against 511 UTI/bloodstream isolates (USA and Europe 2014-2015). Format: cell-based. To be noted: 511 isolates. (In general: Broth dilution looks for growth in wells or tubes with falling amounts of substance.)
In data set [6] the test system is Citrobacter freundii isolates. Nature of the data set: MIC of cephalosporins alone or with clavulanate/tazobactam. The data set is classed as cell-based. To be noted: clavulanate 2:1, tazobactam 4 μg/mL.
Data set [7] relates to Escherichia coli isolates. The description is as above. The data set is classed as cell-based. To be noted: clavulanate 2:1, tazobactam 4 μg/mL.
Data set [8] concerns Klebsiella oxytoca isolates. Described as above. To be noted: clavulanate 2:1, tazobactam 4 μg/mL. The data set is classed as cell-based.
Data set [9] deals with 13 Enterobacteriaceae isolates. Format: cell-based. The following applies: with clavulanate 2:1.
For data set [10] the following is noted: plasma; cited from earlier work.
For data set [11] the following is noted: in vivo, cited from earlier work.

Turning to `CO/N=C(\C(=O)N[C@@H]1C(=O)N2C(C(=O)[O-])=C(C[N+]3(C)CCCC3)CS[C@H]12)c1csc(N)n1` [Cefepime, cefepime], the “ESBL-producing isolates with MIC<8 μg/mL” value in data set [1] is on record as 4 of 19. Besides, the MIC in [2] (AKPN1159 (SHV-12)) is 2 µg/mL; in data set [2] (AKPN1161 (SHV-7)), 1 µg/mL; in data set [2] (AKPN1162 (CTX-M-15, SHV-12)) it was over 32 µg/mL; in [2] (AKPN1166 (CTX-M-14, SHV-12)), 4 µg/mL; in data set [2] (AKPN1167 (SHV-2)), 8 µg/mL; in [3] (AEAE1027 (CTX-M-14)) it was 8 µg/mL. Further, the MIC in data set [3] (AEAE1029 (CTX-M-15)) was over 32 µg/mL; in data set [4] (AECL1065 (CTX-M-15)), over 32 µg/mL; in data set [4] (AECL1067 (CTX-M-3)) it was over 32 µg/mL; in data set [6] (ACFR1034 (CTX-M-15, TEM-OSBL)), over 32 µg/mL; in [6] (ACFR1035 (CTX-M-3, TEM-OSBL)) it was over 32 µg/mL; in data set [7] (AECO001 (no ESBL)) it was at most 0.031 µg/mL. Also, the MIC is over 32 µg/mL in data set [7] (AECO1078 (CTX-M-15)); 4 µg/mL in data set [7] (AECO1147 (CTX-M-15)); 32 µg/mL in [7] (AECO1157 (CTX-M-15, TEM-OSBL)); over 32 µg/mL in data set [7] (AECO1159 (CTX-M-15)); over 32 µg/mL in [7] (AECO1169 (CTX-M-1, TEM-OSBL)); over 32 µg/mL in data set [7] (AECO1172 (CTX-M-14)). Also, the MIC amounted to 0.25 µg/mL in data set [8] (AKOX1005 (SHV-2, TEM-1, DHA-1)) and 32 µg/mL in [8] (AKOX1009 (CTX-M-15)). The compound also displayed an MIC50 in data set [5] of over 16 µg/mL. The “EUCAST % I” value in data set [5] (EUCAST 2016 criteria) was found to be 10.0%. Moreover, in [5] (read-out: MIC90), the MIC90 is over 16 µg/mL.

In the case of `CO/N=C(\C(=O)N[C@@H]1C(=O)N2C(C(=O)O)=C(/C=C\c3scnc3C)CS[C@H]12)c1csc(N)n1` [Cefditoren, cefditoren], the “MICs range against ESBL+ isolates (Table 3)” value in data set [9] was 0.12 to 2 µg/mL. In [10], the “Protein binding (% bound)” value is listed as 88 (plasma) % bound. Also, in data set [11] (200 mg), the “Mean Cmax” value was 1800 ng/mL and the “Mean fCmax” value is 0.22 µg/mL. For the same compound, the bioavailability in data set [11] (po) is reported as 14%. In data set [11], the “Mean unbound plasma concentration following one elimination half-life” value was 110 ng/mL and the “peak free drug concentrations” value is at most 0.3 µg/mL.
